Laboratory results as given in article PMC5453931, “Cathelicidin-trypsin inhibitor loop conjugate represents a promising antibiotic candidate with protease stability” (Scientific Reports, 2017).
Values after ≈ are worked out from the molar mass of the structure shown. Read-outs that look alike come from different tables or passages of the source. Where a SMILES comes first, the peptide text is derived from it.

Key:
Assay type in all cases: cell-based
P. mirabilis = settings: 18 h
Procedure: (§1) A two-fold broth microdilution method described in our previous paper was used to determine the antimicrobial activities of parental and hybrid peptides. More than 30 strains including Gram-negative bacteria, Gram-positive bacteria and fungi were used in the current assay, in which the standard strains were stored in our lab and the clinical strains were collected from local hospitals. Briefly, bacteria were incubated in Mueller-Hinton broth (MH broth) at 37 °C to exponential phase and diluted to 10^6 CFU/mL. A serial dilution of peptide sample were prepared in 96-well microtiter plates (50 μL) and mixed with equal volume of microbial inoculums (50 μL). The plate was slowly shaken in the microbial incubator, and measured at A595 after incubation at 37 °C for 18 h. The minimal concentrations at which no microbial growth occurred were recorded as MIC (minimal inhibitory concentration) values. The traditional antibiotic ampicillin was used as positive control. The results are shown in an average of the MICs obtained from three independent experiments.

C. albican = settings: 18 h
Procedure: as §1

B. subtilis = settings: 18 h
Procedure: as §1

S. dysenteria = settings: two-fold broth microdilution, MH broth, 37 °C, 18 h, A595; mean of three independent experiments in duplicate
Procedure: as §1

S. aureus = settings: 18 h
Procedure: as §1

P. aeruginosa = settings: 18 h
Procedure: as §1

E. coli = settings: 18 h
Procedure: as §1

Vibrio Parahaemolyticus = assay: MIC, two-fold broth microdilution; settings: Vibrio parahaemolyticus, 18 h, read-out: MIC Vibrio Parahaemolyticus
Procedure: as §1

[1] = two-fold broth microdilution, MH broth, 37 °C, A595, mean of three independent experiments in duplicate

| Structure (SMILES) | MIC P. mirabilis (P. mirabilis) | MIC C. albican (C. albican) | MIC B. subtilis (B. subtilis) | MIC S. dysenteria (S. dysenteria) | MIC S. aureus (S. aureus) | MIC P. aeruginosa (P. aeruginosa) | MIC E. coli (E. coli) | further results |
| --- | --- | --- | --- | --- | --- | --- | --- | --- |
| CC(C)C[C@H](NC(=O)[C@H](CCCNC(=N)N)NC(=O)[C@H](CCCCN)NC(=O)[C@H](Cc1ccccc1)NC(=O)[C@H](Cc1ccccc1)NC(=O)[C@@H](N)CCCCN)C(=O)N[C@@H](CC(C)C)C(=O)N[C@@H](CCCCN)C(=O)N[C@@H](CO)C(=O)N[C@H](C(=O)N[C@@H](CCCNC(=N)N)C(=O)N[C@@H](CCCNC(=N)N)C(=O)N[C@@H](C)C(=O)N[C@H](C(=O)N[C@@H](CCCCN)C(=O)N[C@@H](CCCCN)C(=O)N[C@@H](Cc1ccccc1)C(=O)N[C@@H](CCCNC(=N)N)C(N)=O)C(C)C)C(C)C [Hc2] (H-KFFKRLLKSVRRAVKKFR-NH2) | 9.38 µg/mL (≈ 4.07 µM) | 9.38 µg/mL (≈ 4.07 µM) | 18.75 µg/mL (≈ 8.13 µM) | 2.34 µg/mL (≈ 1.01 µM) | 9.38 µg/mL (≈ 4.07 µM) | 9.38 µg/mL (≈ 4.07 µM) | 9.38 µg/mL (≈ 4.07 µM) | – |
| CC(C)C[C@H](NC(=O)[C@H](CCCNC(=N)N)NC(=O)[C@H](CCCCN)NC(=O)[C@H](Cc1ccccc1)NC(=O)[C@H](Cc1ccccc1)NC(=O)[C@@H](N)CCCCN)C(=O)N[C@@H](CC(C)C)C(=O)N[C@@H](CCCCN)C(=O)N[C@@H](CO)C(=O)N[C@H](C(=O)N[C@@H](CCCNC(=N)N)C(=O)N[C@@H](CCCNC(=N)N)C(=O)N[C@@H](C)C(=O)N[C@H](C(=O)N[C@@H](CCCCN)C(=O)N[C@@H](CCCCN)C(N)=O)C(C)C)C(C)C [Hc4] (H-KFFKRLLKSVRRAVKK-NH2) | 75 µg/mL (≈ 37.4 µM) | 75 µg/mL (≈ 37.4 µM) | – | 4.69 µg/mL (≈ 2.34 µM) | 75 µg/mL (≈ 37.4 µM) | 150 µg/mL (≈ 74.9 µM) | 75 µg/mL (≈ 37.4 µM) | – |
| CC(C)C[C@H](NC(=O)[C@H](CCCNC(=N)N)NC(=O)[C@H](CCCCN)NC(=O)[C@H](Cc1ccccc1)NC(=O)[C@H](Cc1ccccc1)NC(=O)[C@@H](N)CCCCN)C(=O)N[C@@H](CC(C)C)C(=O)N[C@@H](CCCCN)C(=O)N[C@@H](CO)C(=O)N[C@H](C(=O)N[C@@H](CCCNC(=N)N)C(=O)N[C@@H](CCCNC(=N)N)C(=O)N[C@@H](C)C(=O)N[C@H](C(=O)N[C@@H](CCCCN)C(N)=O)C(C)C)C(C)C [Hc5] (H-KFFKRLLKSVRRAVK-NH2) | 18.75 µg/mL (≈ 10 µM) | 37.5 µg/mL (≈ 20 µM) | 150 µg/mL (≈ 80 µM) | 4.69 µg/mL (≈ 2.5 µM) | 37.5 µg/mL (≈ 20 µM) | 75 µg/mL (≈ 40 µM) | 37.5 µg/mL (≈ 20 µM) | – |
| CC(C)C[C@H](NC(=O)[C@H](CCCNC(=N)N)NC(=O)[C@H](CCCCN)NC(=O)[C@H](Cc1ccccc1)NC(=O)[C@H](Cc1ccccc1)NC(=O)[C@@H](N)CCCCN)C(=O)N[C@@H](CC(C)C)C(=O)N[C@@H](CCCCN)C(=O)N[C@@H](CO)C(=O)N[C@H](C(=O)N[C@@H](CCCNC(=N)N)C(=O)N[C@@H](CCCNC(=N)N)C(=O)N[C@@H](C)C(=O)N[C@H](C(N)=O)C(C)C)C(C)C [Hc6] (H-KFFKRLLKSVRRAV-NH2) | 37.5 µg/mL (≈ 21.5 µM) | 75 µg/mL (≈ 42.9 µM) | 150 µg/mL (≈ 85.9 µM) | 18.75 µg/mL (≈ 10.7 µM) | 75 µg/mL (≈ 42.9 µM) | 150 µg/mL (≈ 85.9 µM) | 75 µg/mL (≈ 42.9 µM) | – |
| CC(C)C[C@H](NC(=O)[C@H](CCCNC(=N)N)NC(=O)[C@H](CCCCN)NC(=O)[C@H](Cc1ccccc1)NC(=O)[C@H](Cc1ccccc1)NC(=O)[C@@H](N)CCCCN)C(=O)N[C@@H](CC(C)C)C(=O)N[C@@H](CCCCN)C(=O)N[C@@H](CO)C(=O)N[C@H](C(=O)N[C@@H](CCCNC(=N)N)C(=O)N[C@@H](CCCNC(=N)N)C(=O)N[C@@H](C)C(N)=O)C(C)C [Hc7] (H-KFFKRLLKSVRRA-NH2) | – | – | – | 75 µg/mL (≈ 45.5 µM) | – | 150 µg/mL (≈ 91 µM) | – | – |
| CC(C)C[C@H](NC(=O)[C@H](CC(C)C)NC(=O)[C@H](CCCNC(=N)N)NC(=O)[C@H](CCCCN)NC(=O)[C@@H](N)Cc1ccccc1)C(=O)N[C@@H](CCCCN)C(=O)N[C@@H](CO)C(=O)N[C@H](C(=O)N[C@@H](CCCNC(=N)N)C(=O)N[C@@H](CCCNC(=N)N)C(=O)N[C@@H](C)C(=O)N[C@H](C(=O)N[C@@H](CCCCN)C(=O)N[C@@H](CCCCN)C(=O)N[C@@H](Cc1ccccc1)C(=O)N[C@@H](CCCNC(=N)N)C(=O)N[C@@H](CCCCN)C(N)=O)C(C)C)C(C)C [Hc9] (H-FKRLLKSVRRAVKKFRK-NH2) | – | 150 µg/mL (≈ 69.5 µM) | – | 18.75 µg/mL (≈ 8.68 µM) | 9.38 µg/mL (≈ 4.34 µM) | 150 µg/mL (≈ 69.5 µM) | 150 µg/mL (≈ 69.5 µM) | – |
| CC(C)C[C@H](NC(=O)[C@H](CC(C)C)NC(=O)[C@@H](N)CCCNC(=N)N)C(=O)N[C@@H](CCCCN)C(=O)N[C@@H](CO)C(=O)N[C@H](C(=O)N[C@@H](CCCNC(=N)N)C(=O)N[C@@H](CCCNC(=N)N)C(=O)N[C@@H](C)C(=O)N[C@H](C(=O)N[C@@H](CCCCN)C(=O)N[C@@H](CCCCN)C(=O)N[C@@H](Cc1ccccc1)C(=O)N[C@@H](CCCNC(=N)N)C(=O)N[C@@H](CCCCN)C(N)=O)C(C)C)C(C)C [Hc11] (H-RLLKSVRRAVKKFRK-NH2) | – | – | – | 150 µg/mL (≈ 79.6 µM) | – | – | – | – |
| CC(C)C[C@H](NC(=O)[C@H](CC(C)C)NC(=O)[C@H](CCCNC(=N)N)NC(=O)[C@H](CCCCN)NC(=O)[C@@H](N)Cc1ccccc1)C(=O)N[C@@H](CCCCN)C(=O)N[C@@H](CO)C(=O)N[C@H](C(=O)N[C@@H](CCCNC(=N)N)C(=O)N[C@@H](CCCNC(=N)N)C(=O)N[C@@H](C)C(=O)N[C@H](C(=O)N[C@@H](CCCCN)C(=O)N[C@@H](CCCCN)C(=O)N[C@@H](Cc1ccccc1)C(N)=O)C(C)C)C(C)C [Hc15] (H-FKRLLKSVRRAVKKF-NH2) | – | – | – | 37.5 µg/mL (≈ 20 µM) | – | – | 75 µg/mL (≈ 40 µM) | – |
| CC[C@H](C)[C@H](NC(=O)[C@H](CC(C)C)NC(=O)[C@H](CCCNC(=N)N)NC(=O)[C@@H]1CCCN1C(=O)[C@H](CCCCN)NC(=O)[C@H](CCCCN)NC(=O)[C@H](CCCNC(=N)N)NC(=O)[C@H](Cc1ccccc1)NC(=O)[C@H](CCCCN)NC(=O)[C@H](CCCCN)NC(=O)[C@@H](NC(=O)[C@H](C)NC(=O)[C@H](CCCNC(=N)N)NC(=O)[C@H](CCCNC(=N)N)NC(=O)[C@@H](NC(=O)[C@H](CO)NC(=O)[C@H](CCCCN)NC(=O)[C@H](CC(C)C)NC(=O)[C@H](CC(C)C)NC(=O)[C@H](CCCNC(=N)N)NC(=O)[C@H](CCCCN)NC(=O)[C@H](Cc1ccccc1)NC(=O)[C@H](Cc1ccccc1)NC(=O)[C@@H](N)CCCCN)C(C)C)C(C)C)C(=O)NCC(=O)N[C@@H](CC(C)C)C(=O)N[C@@H](CO)C(=O)N[C@H](C(=O)N[C@@H](CC(C)C)C(=O)N[C@@H](CC(C)C)C(=O)O)[C@@H](C)O [Hc-CATH, reference compound] (H-KFFKRLLKSVRRAVKKFRKKPRLIGLSTLL-OH) | – | – | – | 0.59 µg/mL (≈ 0.163 µM) | – | – | – | MIC P. mirabilis (P. mirabilis; [1]): 4.69 µg/mL (≈ 1.29 µM); MIC C. albican (C. albican; [1]): 4.69 µg/mL (≈ 1.29 µM); MIC B. subtilis (B. subtilis; [1]): 75 µg/mL (≈ 20.7 µM); MIC S. aureus (S. aureus; [1]): 4.69 µg/mL (≈ 1.29 µM); MIC P. aeruginosa (P. aeruginosa; [1]): 18.75 µg/mL (≈ 5.17 µM); MIC E. coli (E. coli; [1]): 2.34 µg/mL (≈ 0.645 µM) |
| C[C@@H](O)[C@H]1C(=O)N2C(C(=O)O)=C(S[C@@H]3CN[C@H](C(=O)N(C)C)C3)[C@H](C)[C@H]12 [Meropenem, reference compound] | – | – | – | – | – | – | – | MIC (Vibrio Parahaemolyticus): 0.47 µg/mL (≈ 1.23 µM) |
